Columns and labels:
Type in all cases: cell-based
[1] = XTT cell metabolism/viability assay, HeLa; details: human, HeLa rtTA HIV∆Mls cells
Protocol: Effects of compound treatment on cellular metabolism was assessed by an XTT-based in vitro toxicology assay kit (Sigma-Aldrich) or Trypan blue exclusion (Life Technologies) as proxy for degree of cytotoxicity and expressed relative to DMSO control treatment. For measurement of cell viability using XTT, culture media was removed after 24, 72, and 96 h of compound treatment, replaced with 20% XTT solution and incubated at 37 °C in a 5% CO2 humidified incubator for 2–6 h, and relative cell viability was measured in compound treated cells relative to DMSO-treated cells. Cell viability measurements in CEM-GXR cells are described above.

[2] = tested on: HIV-1 clade A (N54), clade B (IIIB), PRI-, RTI- and INI-resistant strains; experiment: HIV-1 replication in CEM-GXR cells (GFP positive cells, flow cytometry); details: for IC50: Human immunodeficiency virus 1, IIIB, CEM-GXR; for HIV-1 replication of all viruses tested: clade A N54, clade B IIIB, PRI-, RTI-, INI-resistant strains
From the text: Effects of compound treatment on HIV-1 gene expression were initially assessed in the context of HeLa rtTA HIV∆Mls cells stably transduced with an inducible Tet-On HIV-1 system (as previously described). The provirus was modified by either deletion in the reverse transcriptase and integrase region of the pol gene by an MlsI restriction digest (HeLa rtTA HIV∆Mls cell line) or GFP fusion to Gag, deleting the PR and RT-coding regions (HeLa rtTA HIVGagGFP cell line). […] All cell lines were maintained in Iscove’s modified Delbecco’s medium (IMDM; Wisent) supplemented with 10% (vol/vol) fetal bovine serum (FBS, Wisent), 1% penicillin/streptomycin (P/S, Wisent) and 0.2% Amphotericin B (Wisent). Indicator cell line CEM-GXR was obtained from Dr. Mark Brockman (Simon Fraser University). The RTI-resistant virus (E00443) was obtained from Dr. Zabrina Brumme (Simon Fraser University). The HIV-1 clade A (97USSN54 (N54)), HIV-1 clade B (IIIB), integrase inhibitor resistant virus (11845), protease inhibitor resistant virus (2948) were obtained through the NIH AIDS Research and Reference reagent program, Division of AIDS, NIAID, NIH).
(§1) To assess the activity of compounds against HIV-1 strains having resistance to various ART drugs, assays were performed in the context of CEM-GXR cells. These cells express CD4, CXCR4, and coreceptor, CCR5 as well as an exogenous Tat-driven LTR-GFP expression cassette. Cultures were infected with different HIV-1 strains of interest, differing on their subtypes (A and B), and resistance to three major drug targets (reverse transcriptase, protease, and integrase). The culture contains serial dilutions of the molecule in the final concentrations from 0.156 to 5 μM for 833; 725 nM to 46.87 μM for 791; 1.95 to 62.5 μM for 892. Antiviral activity was evaluated in the assay by measuring inhibition of HIV-1 spread in a coculture of CEM-GXR cells containing 1% of HIV-1 infected (GFP positive) cells using flow cytometric analysis (GuavaSoft 2.2 software, Guava HT8, Millipore). To estimate the viable cell counts, the gate in a flow cytometer (Guava HT8) was set to cover 95% of the freshly passaged uninfected CEM-GXR cell or using ViaCount™. The same parameter was employed to gate viable cells in the inhibition assay and the number of gated cells was obtained by GuavaSoft 2.2 software. For assays using ViaCount™, sample acquisition and data analysis were performed with the selection of EasyFit analysis feature using the ViaCount™ software module.

[3] = Viable cell count by FSC/SSC gate, CEM-GXR; details: human, CEM-GXR cells infected with a Clade B HIV-1 strain
Protocol: as §1

[4] = tested on: HIV-1 US RNA; experiment: FISH of HIV-1 US RNA and GagGFP in HeLa rtTA HIV GagGFP C7 cells; details: 791 30 µM, 833 2 µM, 892 15 µM
Protocol: Changes in HIV-1 US RNA subcellular distribution in response to compound treatment was analyzed by fluorescent in situ hybridization in HeLa HIVrtTA GagGFP cells, as described by Wong et al.. Following washing to remove unbound probe, nuclei were stained with DAPI and images were acquired using a Leica DMR microscope at 630× magnification.

[5] = tested on: Nap1; experiment: Western blot of Nap1; details: 791 30 µM, 833 2 µM, 892 15 µM, 24 h
Protocol: ELISA for p24 Gag antigen was performed on cell supernatants using kits purchased from Frederick National Laboratory for Cancer Research (Leidos) or XpressBio extended range kit and performed according to manufacturer’s instructions. Protein concentration in cell lysates was quantified by Bradford assay and equal amounts of protein run on 7, 10, 12, or 14% SDS-PAGE, depending on the protein of interest. Following transfer to PVDF (BioRad or Perkin-Elmer), blots were blocked in either 5% Milk-PBS-T (5% Milk, 0.05% Tween-20, 1× PBS) or 3% BSA-PBS-T (3% BSA, 0.05% Tween-20, 1× PBS) prior to incubating with primary antibody (all diluted in 3% BSA-PBS-T). Primary antibodies used were: purified mouse anti-p24 supernatant from anti-HIV-1 Gag hybridoma 183, mouse anti-gp120 hybridoma 902 (NIH AIDS Reagent Program), mouse monoclonal antibody to HIV-1 Rev (Abcam), rabbit polyclonal antibody to HIV-1 Tat (Abcam), mouse monoclonal antibody to p53 (Santa Cruz), rabbit purified IgG for Nap1 (provided by L. Frappier), rabbit polyclonal antibody to GAPDH (Sigma-Aldrich), or mouse monoclonal antibody to α-Tubulin (Sigma-Aldrich). Following incubation with appropriate secondary antibody, blots were visualized by ECL, ECL Plus (Perkin-Elmer), or Clarity Western ECL substrate (BioRad). Quantification of the relative intensity of the detected bands was done using ImageLab software and normalized to corresponding bands of the loading control (GAPDH or α-Tubulin).

[6] = tested on: HIV-1 Tat; experiment: Tat protein decay in the presence of cycloheximide; details: cycloheximide 10 µg/ml (Figure S4)
Protocol: To assess effect of compounds on HIV-1 Tat stability, the decay of HIV-1 Tat levels was compared between DMSO-treated and compound-treated protein lysates in the presence of cycloheximide. In the first set of experiments, HIV-1 gene expression was induced with doxycylin (dox) for 24 h then 10 μg/mL cycloheximide was added to block new protein synthesis in combination with either DMSO or the compounds. Cells were harvested every 2 h and Tat protein levels measured by western blot. Quantification of the relative intensity of the detected bands was performed using ImageLab software (BioRad) and normalized to corresponding bands of the loading control (GAPDH) from at least three independent experiments. To determine whether the compounds’ effect on HIV-1 gene expression could be reversed by inhibition of the proteasome, compound treatment assay was performed as previously described with the addition of 10 μM MG132 (Sigma-Aldrich) to compound-treated cells 8 h prior to harvesting. Equal amounts of protein were run on 13 or 14% gels by SDS-PAGE, blotted and probed with antibodies for Tat and GAPDH. Quantification of the relative intensity of the detected bands was performed using ImageLab software (BioRad) and normalized to corresponding bands of the loading control (GAPDH) from at least three independent experiments.

SMILES | CC50 [1] [µM] | IC50 [2] [µM] | HIV-1 replication of all viruses tested [2] | CC50 [3] [µM] | GagGFP levels relative to DMSO [4] | cytoplasmic accumulation of HIV-1 US RNA [4] | reduction of Nap1 expression [5] | half-life of HIV-1 Tat relative to DMSO [6]
Cc1cc(NCc2cccnc2)n2ncc(-c3ccc(Cl)cc3)c2n1 [Compound 791, 3-(4-chlorophenyl)-5-methyl-N-(3-pyridinylmethyl)pyrazolo[1,5-a]pyrimidin-7-amine] | > 40 | 4.5 | significant reductions | > 12 | reduced | prevented cytoplasmic accumulation | approximately 50% | do not alter
O=C(NC(=S)NNC(=O)c1ccccc1O)c1ccc(-c2ccccc2)cc1 [Compound 833, N-([2-(2-hydroxybenzoyl)hydrazino]carbonothioyl}-4-biphenylcarboxamide] | ≥ 40 | 1 | significant reductions | > 5 | reduced | prevented cytoplasmic accumulation | more variable | do not alter
COc1ccc(C=NNC(=O)c2ccccc2O)cc1O [Compound 892, 2-hydroxy-N′-(3-hydroxy-4-methoxybenzylidene)benzohydrazide] | > 40 | – | only modest inhibitory activity | 31 | reduced | prevented cytoplasmic accumulation | no effect | do not alter

Source: article PMC5267425, “Identification of small molecule modulators of HIV-1 Tat and Rev protein accumulation” (Retrovirology, 2017)
